Assay results: patent US20060069132A1, “Azolecarboxamide herbicides” (priority 2004, published 2006)
Like-named read-outs stand apart in the source and are kept apart here.

Key:
wild oat = assay: Test B postemergence herbicide test; assay type: in vivo, Avena fatua; settings: Avena fatua, post-emergence, 336 h, postemergence, read-out: Oat, Wild plant response rating
How it was run: (§1)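 After treating 2-leaf paddy plants or 2–18 cm postemergence plants (1 to 4 leaves) with formulated chemical, researchers kept them in a greenhouse for 13–15 days. Effects were judged visually versus controls: 0 indicates none, 100 total control.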

barnyardgrass [1] = assay: Test B flooded paddy test; assay type: in vivo, Echinochloa crus-galli; settings: Echinochloa crus-galli, 336 h, 1000 g ai/ha, scale 0 to 100 (0 no effect, 100 complete control), read-out: Barnyardgrass plant response rating
How it was run: (§2)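 Treated at 2-leaf (paddy) or 1–4-leaf, 2–18 cm (postemergence); greenhouse 13–15 d; visual score vs control, 0 none to 100 complete control; dash = not tested.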

Surinam grass = assay: Test B pre-/postemergence herbicide test; assay type: in vivo, Urochloa decumbens; settings: Urochloa decumbens; for pest or weed control at 125 g/ha: 125 g ai/ha; for pest or weed control at 500 g/ha: 500 g ai/ha
How it was run: (§3)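 Test chemicals in a non-phytotoxic solvent mixture with surfactant were applied preemergence to seeded species and postemergence to plants 2-18 cm tall (1- to 4-leaf stage); rice and barnyardgrass were also tested in a flooded paddy at the 2-leaf stage. Visual rating versus controls after 13-15 days in greenhouse, scale 0 (no effect) to 100 (complete control).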

barnyardgrass [2] = assay: Test B pre-/postemergence herbicide test; assay type: in vivo, Echinochloa crus-galli; settings: Echinochloa crus-galli; for pest or weed control at 125 g/ha: 125 g ai/ha; for pest or weed control at 500 g/ha: 500 g ai/ha
How it was run: (§4)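 Herbicidal effect was judged by eye on a 0–100 scale after plants stood 13 to 15 days in the greenhouse following pre- or postemergence treatment with surfactant-containing formulations.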

[3] = test system: small flower umbrella sedge; assay: Test B flooded paddy test; assay type: in vivo, Cyperus difformis; settings: Cyperus difformis, 336 h, 1000 g ai/ha, scale 0 to 100 (0 no effect, 100 complete control), read-out: Sedge, Umbrella plant response rating
How it was run: as §2

pigweed = assay: Test B pre-/postemergence herbicide test; assay type: in vivo, Amaranthus retroflexus; settings: Amaranthus retroflexus, 336 h; for pest or weed control at 125 g/ha: 125 g ai/ha; for pest or weed control at 500 g/ha: 500 g ai/ha
How it was run: as §3

corn = assay: Test B pre-/postemergence herbicide test; assay type: in vivo, Zea mays; settings: Zea mays; for plant injury at 125 g/ha: 125 g ai/ha
How it was run: as §3

lambsquarters = assay: Test B pre-/postemergence herbicide test; assay type: in vivo, Chenopodium album; settings: Chenopodium album, 336 h; for pest or weed control at 125 g/ha: 125 g ai/ha; for pest or weed control at 500 g/ha: 500 g ai/ha
How it was run: as §3

ducksalad = assay: Test B flooded paddy test; assay type: in vivo, Heteranthera limosa; settings: Heteranthera limosa, 336 h, 1000 g ai/ha, scale 0 to 100 (0 no effect, 100 complete control), read-out: Ducksalad plant response rating
How it was run: as §2

cocklebur = assay: Test B pre-/postemergence herbicide test; assay type: in vivo, Xanthium strumarium; settings: Xanthium strumarium; for pest or weed control at 125 g/ha: 125 g ai/ha; for pest or weed control at 500 g/ha: 500 g ai/ha
How it was run: as §4

giant foxtail = assay: Test B pre-/postemergence herbicide test; assay type: in vivo, Setaria faberi; settings: Setaria faberi, 336 h; for pest or weed control at 125 g/ha: 125 g ai/ha; for pest or weed control at 500 g/ha: 500 g ai/ha
How it was run: as §3

blackgrass = assay: Test B postemergence herbicide test; assay type: in vivo, Alopecurus myosuroides; settings: Alopecurus myosuroides, post-emergence, 336 h, postemergence, read-out: Blackgrass plant response rating
How it was run: as §2

wheat = assay: Test B postemergence herbicide test; assay type: in vivo, Triticum aestivum; settings: Triticum aestivum, post-emergence, 336 h, postemergence, read-out: Wheat plant response rating
How it was run: as §1

morningglory = assay: Test B pre-/postemergence herbicide test; assay type: in vivo, Ipomoea coccinea; settings: Ipomoea, 336 h; for pest or weed control at 125 g/ha: 125 g ai/ha; for pest or weed control at 500 g/ha: 500 g ai/ha
How it was run: as §4

rice = assay: Test B flooded paddy test; assay type: in vivo, Oryza sativa; settings: Oryza sativa, 336 h, 1000 g ai/ha, scale 0 to 100 (0 no effect, 100 complete control), read-out: Rice plant response rating
How it was run: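 Paddy species grown to the 2-leaf stage under flooding; blackgrass sprayed postemergence at 2–18 cm (1- to 4-leaf stage). Plants kept in a greenhouse for 13 to 15 days, then visually rated against controls on 0 (no effect) to 100 (complete control).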

large crabgrass = assay: Test B pre-/postemergence herbicide test; assay type: in vivo, Digitaria sanguinalis; settings: Digitaria sanguinalis; for pest or weed control at 125 g/ha: 125 g ai/ha; for pest or weed control at 500 g/ha: 500 g ai/ha
How it was run: as §3

[4] = 125 g ai/ha, visual rating, scale 0 (no effect) to 100 (complete control)
[5] = 500 g ai/ha, scale 0 to 100, 0 is no effect, 100 is complete control

Compound: CCn1nc(C(C)(C)C)c(F)c1C(=O)Nc1cc(C(=O)N(C)C)ccc1F [Compound 276, N-[5-[(dimethylamino)carbonyl]-2-fluorophenyl]-3-(1,1-dimethylethyl)-1-ethyl-4-fluoro-1H-pyrazole-5-carboxamide]
- pest or weed control at 125 g/ha (wild oat; [4]): 30%
- pest or weed control at 500 g/ha (wild oat; [5]): 40%
- pest or weed control at 1000 g/ha (barnyardgrass [1]): 70%
- pest or weed control at 125 g/ha (Surinam grass; post-emergence, postemergence, visual rating, scale 0 (no effect) to 100 (complete control), read-out: Surinam Grass plant response rating): 10%
- pest or weed control at 500 g/ha (Surinam grass; post-emergence, postemergence, scale 0 to 100, 0 is no effect, 100 is complete control, read-out: Surinam Grass plant response rating): 20%
- pest or weed control at 125 g/ha (Surinam grass; pre-emergence, 0 = no effect, 100 = complete control, read-out: Surinam Grass plant response rating (0 to 100 scale)): 10%
- pest or weed control at 500 g/ha (Surinam grass; pre-emergence, visual rating, 0 = no effect, 100 = complete control, read-out: Plant response rating, Surinam Grass): 60%
- pest or weed control at 125 g/ha (barnyardgrass [2]; post-emergence, postemergence, visual rating, scale 0 (no effect) to 100 (complete control), read-out: Barnyardgrass plant response rating): 0%
- pest or weed control at 500 g/ha (barnyardgrass [2]; post-emergence, postemergence, scale 0 to 100, 0 is no effect, 100 is complete control, read-out: Barnyardgrass plant response rating): 10%
- pest or weed control at 125 g/ha (barnyardgrass [2]; pre-emergence, 0 = no effect, 100 = complete control, read-out: Barnyardgrass plant response rating (0 to 100 scale)): 60%
- pest or weed control at 500 g/ha (barnyardgrass [2]; pre-emergence, visual rating, 0 = no effect, 100 = complete control, read-out: Plant response rating, Barnyardgrass): 80%
- pest or weed control at 1000 g/ha [3]: 80%
- pest or weed control at 125 g/ha (pigweed; post-emergence, postemergence, visual rating, scale 0 (no effect) to 100 (complete control), read-out: Pigweed plant response rating): 40%
- pest or weed control at 500 g/ha (pigweed; post-emergence, postemergence, scale 0 to 100, 0 is no effect, 100 is complete control, read-out: Pigweed plant response rating): 70%
- pest or weed control at 125 g/ha (pigweed; pre-emergence, 0 = no effect, 100 = complete control, read-out: Pigweed plant response rating (0 to 100 scale)): 30%
- pest or weed control at 500 g/ha (pigweed; pre-emergence, visual rating, 0 = no effect, 100 = complete control, read-out: Plant response rating, Pigweed): 100%
- plant injury at 125 g/ha (corn; post-emergence, postemergence, visual rating, scale 0 (no effect) to 100 (complete control), read-out: Corn plant response rating): 0%
- plant injury at 500 g/ha (corn; post-emergence, postemergence, 500 g ai/ha, scale 0 to 100, 0 is no effect, 100 is complete control, read-out: Corn plant response rating): 20%
- plant injury at 125 g/ha (corn; pre-emergence, 0 = no effect, 100 = complete control, read-out: Corn plant response rating (0 to 100 scale)): 20%
- Corn plant response rating (crop injury, 0 = no effect, 100 = complete kill) at 500 g/ha (corn; pre-emergence, 500 g ai/ha, visual rating, 0 = no effect, 100 = complete control): 60%
- pest or weed control at 125 g/ha (lambsquarters; post-emergence, postemergence, visual rating, scale 0 (no effect) to 100 (complete control), read-out: Lambsquarters plant response rating): 20%
- pest or weed control at 500 g/ha (lambsquarters; post-emergence, postemergence, scale 0 to 100, 0 is no effect, 100 is complete control, read-out: Lambsquarters plant response rating): 60%
- pest or weed control at 125 g/ha (lambsquarters; pre-emergence, 0 = no effect, 100 = complete control, read-out: Lambsquarters plant response rating (0 to 100 scale)): 40%
- pest or weed control at 500 g/ha (lambsquarters; pre-emergence, visual rating, 0 = no effect, 100 = complete control, read-out: Plant response rating, Lambsquarters): 100%
- pest or weed control at 1000 g/ha (ducksalad): 80%
- pest or weed control at 125 g/ha (cocklebur; post-emergence, postemergence, visual rating, scale 0 (no effect) to 100 (complete control), read-out: Cocklebur plant response rating): 10%
- pest or weed control at 500 g/ha (cocklebur; post-emergence, postemergence, scale 0 to 100, 0 is no effect, 100 is complete control, read-out: Cocklebur plant response rating): 10%
- pest or weed control at 125 g/ha (cocklebur; pre-emergence, 0 = no effect, 100 = complete control, read-out: Cocklebur plant response rating (0 to 100 scale)): 0%
- pest or weed control at 500 g/ha (cocklebur; pre-emergence, visual rating, 0 = no effect, 100 = complete control, read-out: Plant response rating, Cocklebur): 30%
- pest or weed control at 125 g/ha (giant foxtail; post-emergence, postemergence, visual rating, scale 0 (no effect) to 100 (complete control), read-out: Foxtail, Giant plant response rating): 10%
- pest or weed control at 500 g/ha (giant foxtail; post-emergence, postemergence, scale 0 to 100, 0 is no effect, 100 is complete control, read-out: Foxtail, Giant plant response rating): 40%
- pest or weed control at 125 g/ha (giant foxtail; pre-emergence, 0 = no effect, 100 = complete control, read-out: Foxtail, Giant plant response rating (0 to 100 scale)): 30%
- pest or weed control at 500 g/ha (giant foxtail; pre-emergence, visual rating, 0 = no effect, 100 = complete control, read-out: Plant response rating, Foxtail, Giant): 90%
- pest or weed control at 125 g/ha (blackgrass; [4]): 30%
- pest or weed control at 500 g/ha (blackgrass; [5]): 40%
- plant injury at 125 g/ha (wheat; [4]): 20%
- plant injury at 500 g/ha (wheat; [5]): 30%
- pest or weed control at 125 g/ha (morningglory; post-emergence, postemergence, visual rating, scale 0 (no effect) to 100 (complete control), read-out: Morningglory plant response rating): 10%
- pest or weed control at 500 g/ha (morningglory; post-emergence, postemergence, scale 0 to 100, 0 is no effect, 100 is complete control, read-out: Morningglory plant response rating): 30%
- pest or weed control at 125 g/ha (morningglory; pre-emergence, 0 = no effect, 100 = complete control, read-out: Morningglory plant response rating (0 to 100 scale)): 0%
- pest or weed control at 500 g/ha (morningglory; pre-emergence, visual rating, 0 = no effect, 100 = complete control, read-out: Plant response rating, Morningglory): 10%
- plant injury at 1000 g/ha (rice): 70%
- pest or weed control at 125 g/ha (large crabgrass; post-emergence, postemergence, visual rating, scale 0 (no effect) to 100 (complete control), read-out: Crabgrass, Large plant response rating): 10%
- pest or weed control at 500 g/ha (large crabgrass; post-emergence, postemergence, scale 0 to 100, 0 is no effect, 100 is complete control, read-out: Crabgrass, Large plant response rating): 20%
- pest or weed control at 125 g/ha (large crabgrass; pre-emergence, 0 = no effect, 100 = complete control, read-out: Crabgrass, Large plant response rating (0 to 100 scale)): 10%
- pest or weed control at 500 g/ha (large crabgrass; pre-emergence, visual rating, 0 = no effect, 100 = complete control, read-out: Plant response rating, Crabgrass, Large): 70%
